How the values were obtained:
[1] = system: normal NK cells expanded with K562-aAPC; assay: percent inhibition of viability; higher = more inhibition; conditions: 72 h, IL-2 2.5 ng/mL
Procedure: (§1)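 Drug sensitivity and resistance testing on K562-aAPC-expanded normal NK cells: 5 concentrations (10-fold steps over a 10,000-fold range), 72 h at 37 °C, viability by CellTiter-Glo normalised to DMSO and benzethonium chloride controls; DSS from the fitted curve.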

DERL-7 (IL-2 2.5 ng/mL) [2] = assay: as above; conditions: 72 h
IMC-1 (IL-2 20 ng/mL) [3] = assay: as above; conditions: 72 h
KAI3 (IL-2 2.5 ng/mL) [4] = assay: as above; conditions: 72 h
KHYG-1 (IL-2 2.5 ng/mL) [5] = assay: as above; conditions: 72 h
NK-92 (IL-2 2.5 ng/mL) [6] = assay: as above; conditions: 72 h
NK-YS (IL-2 2.5 ng/mL) [7] = assay: as above; conditions: 72 h
NKL (IL-2 2.5 ng/mL) [8] = assay: as above; conditions: 72 h
SNK-6 (IL-2 2.5 ng/mL) [9] = assay: as above; conditions: 72 h
YT (IL-2 2.5 ng/mL) [10] = assay: as above; conditions: 72 h
[11] = system: normal primary NK cells, pool 1 (3 donors) (IL-2 2.5 ng/mL); assay: as above; conditions: 72 h
[12] = system: normal primary NK cells, pool 1 (3 donors), resting (IL-2 0 ng/mL); assay: as above; conditions: 72 h
[13] = system: normal primary NK cells, pool 2 (3 donors) (IL-2 2.5 ng/mL); assay: as above; conditions: 72 h
[14] = system: normal primary NK cells, pool 3 (3 donors) (IL-2 2.5 ng/mL); assay: as above; conditions: 72 h
[15] = system: normal NK cells expanded with K562-aAPC; assay: drug sensitivity score (DSS) (DSS units); higher = more sensitive; extreme values may be limits of the assay; conditions: 72 h; IL-2 2.5 ng/mL
Procedure: as §1

DERL-7 (IL-2 2.5 ng/mL) [16] = assay: as above; conditions: 72 h
IMC-1 (IL-2 20 ng/mL) [17] = assay: as above; conditions: 72 h
KAI3 (IL-2 2.5 ng/mL) [18] = assay: as above; conditions: 72 h
KHYG-1 (IL-2 2.5 ng/mL) [19] = assay: as above; conditions: 72 h
NK-92 (IL-2 2.5 ng/mL) [20] = assay: as above; conditions: 72 h
NK-YS (IL-2 2.5 ng/mL) [21] = assay: as above; conditions: 72 h
NKL (IL-2 2.5 ng/mL) [22] = assay: as above; conditions: 72 h
SNK-6 (IL-2 2.5 ng/mL) [23] = assay: as above; conditions: 72 h
YT (IL-2 2.5 ng/mL) [24] = assay: as above; conditions: 72 h
[25] = system: normal primary NK cells, pool 1 (3 donors) (IL-2 2.5 ng/mL); assay: as above; conditions: 72 h
[26] = system: normal primary NK cells, pool 1 (3 donors), resting (IL-2 0 ng/mL); assay: as above; conditions: 72 h
[27] = system: normal primary NK cells, pool 2 (3 donors) (IL-2 2.5 ng/mL); assay: as above; conditions: 72 h
[28] = system: normal primary NK cells, pool 3 (3 donors) (IL-2 2.5 ng/mL); assay: as above; conditions: 72 h

Nc1cccc2c1CN(C1CCC(=O)NC1=O)C2=O (stereo not drawn) [Lenalidomide] (max concentration tested 100000 nM)
percent inhibition of viability [%]
Conditions	10 nM	100 nM	1000 nM	10000 nM	100000 nM
DERL-7 (IL-2 2.5 ng/mL) [2]	-8.15	-7.59	-6.54	-8.34	-1.1
IMC-1 (IL-2 20 ng/mL) [3]	-4.67	1.54	2.6	7.23	12.5
KAI3 (IL-2 2.5 ng/mL) [4]	-8.97	1.64	-0.65	10.5	50.6
KHYG-1 (IL-2 2.5 ng/mL) [5]	-5.45	0.35	0.75	5.6	18.1
NK-92 (IL-2 2.5 ng/mL) [6]	-4.74	-0.2	7.52	10.4	35.1
NK-YS (IL-2 2.5 ng/mL) [7]	-1.44	-1.49	0.99	3.35	15.9
NKL (IL-2 2.5 ng/mL) [8]	-12.2	-2.95	-12.4	8.93	39.2
SNK-6 (IL-2 2.5 ng/mL) [9]	5.02	1.16	7.72	40.7	50.3
YT (IL-2 2.5 ng/mL) [10]	0.52	3.88	7	1.78	15.6
[1]	-4.41	-0.84	-0.51	11.3	16.5
[11]	4.48	-7.64	6.17	0.68	22
[12]	1.29	-2.98	10.6	35.5	59.5
[13]	-16.8	-10.4	4.67	-3.79	13.3
[14]	-9.99	-13.1	8.3	-7.53	12.1

Conditions	drug sensitivity score
DERL-7 (IL-2 2.5 ng/mL) [16]	0
IMC-1 (IL-2 20 ng/mL) [17]	0.13
KAI3 (IL-2 2.5 ng/mL) [18]	4.39
KHYG-1 (IL-2 2.5 ng/mL) [19]	1.04
NK-92 (IL-2 2.5 ng/mL) [20]	2.68
NK-YS (IL-2 2.5 ng/mL) [21]	0.64
NKL (IL-2 2.5 ng/mL) [22]	3.34
SNK-6 (IL-2 2.5 ng/mL) [23]	8.33
YT (IL-2 2.5 ng/mL) [24]	0.46
[15]	1.25
[25]	0.82
[26]	7.86
[27]	0.06
[28]	0.01

COc1cc2nccc(Oc3ccc(NC(=O)NC4CC4)c(Cl)c3)c2cc1C(N)=O [Lenvatinib] (max concentration tested 2500 nM)
percent inhibition of viability [%]
Conditions	0.25 nM	2.5 nM	25 nM	250 nM	2500 nM
DERL-7 (IL-2 2.5 ng/mL) [2]	-0.62	1.25	2.95	-3.62	5.92
IMC-1 (IL-2 20 ng/mL) [3]	-6.27	-2.01	-2.37	0.43	3.18
KAI3 (IL-2 2.5 ng/mL) [4]	-5.44	0.76	3.58	15.2	41.1
KHYG-1 (IL-2 2.5 ng/mL) [5]	-6.43	-1.14	-3.61	2.55	13.7
NK-92 (IL-2 2.5 ng/mL) [6]	-9.84	0.14	-0.46	17.2	37.8
NK-YS (IL-2 2.5 ng/mL) [7]	-8.22	-3.14	-1.94	6.7	25.7
NKL (IL-2 2.5 ng/mL) [8]	-6.25	-5.72	2.51	23.8	33.6
SNK-6 (IL-2 2.5 ng/mL) [9]	-33.9	-23.3	-21.9	-19.5	-12.3
YT (IL-2 2.5 ng/mL) [10]	-8.36	-6.83	-3.92	0.74	22.8
[1]	-4.04	-5.14	-2.63	6.46	19.2
[11]	-3.95	5.45	5.1	3.42	13.3
[12]	-5.39	10.9	5.68	1.5	8.67
[13]	-4.17	-2.51	-1.07	-9.36	-5.82
[14]	-0.41	-2.47	2.78	-8.95	-1.48

Conditions	drug sensitivity score
DERL-7 (IL-2 2.5 ng/mL) [16]	0
IMC-1 (IL-2 20 ng/mL) [17]	0
KAI3 (IL-2 2.5 ng/mL) [18]	3.76
KHYG-1 (IL-2 2.5 ng/mL) [19]	0.34
NK-92 (IL-2 2.5 ng/mL) [20]	4.08
NK-YS (IL-2 2.5 ng/mL) [21]	1.95
NKL (IL-2 2.5 ng/mL) [22]	4.35
SNK-6 (IL-2 2.5 ng/mL) [23]	0.89
YT (IL-2 2.5 ng/mL) [24]	0.88
[15]	1.26
[25]	0.01
[26]	0
[27]	0.89
[28]	0

Source: the supplement of paper PMC5908809
